In patent US20250003008A1, “METHODS FOR TREATMENT OF CANCER” (The Johns Hopkins University, priority 2021, published 2025):
Where two headings read alike, the source gives them in different places.

Tests used:
[1] = tested on: malignant pleural mesothelioma; conditions: historical control, phase 3 study; cited from earlier work
[2] = Description: PrE0505, a phase 2 single arm multicenter study, enrolled human patients with previously untreated unresectable MPM (NCT02899195, FIG. 1). […] Patients with stable or responding tumors after concurrent therapy, continued on maintenance durvalumab for a maximum duration of one year from the first study treatment. A protocol-defined safety review was performed after enrollment of the first 6 and 15 patients. Pre-specified dose-limiting toxicities during the safety run-in period included any immune-mediated adverse event of ≥grade 4 or any non-resolving immune-mediated adverse event of ≥grade 3 during the first two cycles of therapy.
Imaging was performed every 6 weeks during the concurrent phase of treatment and every 9 weeks during maintenance durvalumab. Best objective response was evaluated by RECIST Version 1.1 criteria modified for mesothelioma. Toxicity was determined using the CTCAE Version 4.03 criteria.
Secondary objectives included safety and tolerability of durvalumab and durvalumab in combination with chemotherapy in subjects with malignant pleural mesothelioma, percentage of patients progression-free at 24 weeks from the time of registration (response coded based on modified RECIST 1.1 criteria for mesothelioma), progression-free survival-measured from the time of study registration until radiologic progression, clinical progression or death, best objective response rate with evaluation continued up to 1 year (response coded based on modified RECIST Version 1.1 criteria for mesothelioma). Exploratory objectives included assessment of tumor baseline PD-L1 expression, the genomic and neoantigen landscape of tumors, dynamics of circulating cell free tumor DNA and other blood-based biomarkers.

[3] = of the patients who received that agent within the regimen

Compound: N.N.[Cl][Pt][Cl] [cisplatin]
- survival [1]: 9.3 months

Compound: Nc1nc2[nH]cc(CCc3ccc(C(=O)N[C@@H](CCC(=O)O)C(=O)O)cc3)c2c(=O)[nH]1 [pemetrexed]
- patients who received a dose reduction due to toxicity ([2]; human, in vivo): 2%

Compound: N.N.O=C([O-])C1(C(=O)[O-])CCC1.[Pt+2] [carboplatin]
- patients who received a dose reduction due to toxicity [2, 3]: 12%

Compound: durvalumab
- patients who received a dose reduction due to toxicity [2, 3]: no patients
